Data reported in US10823738B2, “Methods for breast cancer treatment” (George Mason University, priority 2015, dated 2020).

Key:
breast cancer = test: Bayesian analysis (MCMC simulation on I-SPY 2 data) of the predicted probability of Phase III success; assay type: in vivo, human
From the text: Adaptive design trials are constructed on the basis of assigning patients to certain signature groups such as signature biomarker groups, the goal being to determine predictive probabilities of success in Phase III trials for various targeted therapeutics. In essence, the design trials provide data that facilitates the determination of which patient biomarker signatures respond to various regimens. A regimen would “graduate” from trial if probability of statistical significance in Phase III reaches 85% for any signature, provided that a minimum of 60 patients have been assigned to the regimen. Neratinib was one of 7 agents tested in the experimental arms of the ISPY-2 TRIAL to date.
Bayesian analysis was completed using the MCMC simulation based on I-SPY 2 data with the following model: pCR˜HR+HER2+biomarker+treatment+treatment*HR+treatment*HER2+treatment*biomarker. No multiple comparison adjustments were applied. The Bayesian analytical engine developed by Don Berry (Yee et al J Clin Oncol. 2012 Dec. 20; 30(36):4584-6), is a mathematical approach that evaluates the clinical performance of a drug (in this case, neratinib) in both the treatment arm (in this case tumor shrinkage estimates by size changes observed by MRI), coupled with complete pathological response (pCR) as measured as the final response determinant, and the response of the predicate therapy in the control arm. This evaluation determined success of a given therapy for a Phase III trial, and in this case, it was determined that phosphorylation of EGFR at Y1173 was not only statistically significant at predicting or assessing response to neratinib in all patients regardless of hormone receptor levels and HER2 levels (HER2+, HER2− and HR+ and HR−), but when patients with high levels of phosphorylated EGFR (Y1173) were added to the HR−/HER2+ subgroup, the prevalence of ‘biomarker-positive’ patients increased by 50%, while increasing the predicted probability of Phase III success to 90%. […]

HER2− breast cancer = test: I-SPY 2 TRIAL: pCR response of breast cancer patients treated with veliparib; assay type: in vivo, human
From the text: Currently, treatment of Stage II/III breast cancer involves neoadjuvant treatment (pre-surgical) with drug regimens that may include therapies targeting specific molecular defects. Disclosed herein are novel methods for treatment of breast cancer comprising identifying biomarkers that predict response to therapeutic agents used in the pre-surgical stage of treatment of cancer. Subjects providing samples (pre-treatment biopsies) for studies described herein were characterized based on measurement of estrogen/hormone receptor (HR) and HER2 (c-erbB2), and were described by HER2−/HR−. HER2+/HR+. HER2+/HR−, HER2−/HR+ phenotypes. Response to treatment was determined by the amount of tumor shrinkage and a lack of appreciable tumor evident at surgery. […] This microarray allows for quantitative measurement of the amount of proteins and/or phosphorylated proteins in the tumor or cancerous cells from pretreatment sample, for example from biopsy specimens of women with Stage II/III breast cancer. […]
This example tested the hypothesis that the response to the PARP inhibitor, veliparib, was predicted by specific biomarkers. […] Various proteins were evaluated as biomarkers of veliparib response using reverse phase protein microarray (RPMA) data from pre-treatment laser capture microdissection (LCM) purified tumor epithelium. […]

Structure (SMILES) | Phase III success (predicted probability) (breast cancer; EGFR Y1173 used as a single marker, all patients) | Phase III success (predicted probability) (breast cancer; HER2+/HR− status as measured by immunohistochemical methods) | predicted probability of Phase III success (breast cancer; patients with high levels of phosphorylated EGFR (Y1173) added to the HR−/HER2+ subgroup) | clinical response (HER2− breast cancer; HER2−/HR− subtype) | complete pathological response (pCR) (HER2− breast cancer; women with both HR+ and HR− tumors)
CCOc1cc2ncc(C#N)c(Nc3ccc(OCc4ccccn4)c(Cl)c3)c2cc1NC(=O)/C=C/CN(C)C [neratinib] | 93% | 87% | 90% |  | 
C[C@]1(c2nc3c(C(N)=O)cccc3[nH]2)CCCN1 [veliparib] |  |  |  | statistically significant clinical response | pCR was observed
